Source: patent US20220273678A1 (priority 2020, published 2022)
“Also recorded” adds a separate entry of the source. Read-outs that look alike come from different tables or passages of the source.

What was measured:
SARS-CoV-2 [1] = format: cell-based
SARS-CoV-2 [2] = experiment: K18-hACE2 mice infected with SARS-CoV-2 (wild type), lung viral titer and viral protein; format: in vivo
Vero cells = experiment: XTT cell cytotoxicity assay in uninfected Vero cells; format: cell-based, African green monkey; conditions: uninfected cultures, 10-1000 nM
Protocol: To measure cell viability to determine if there was any treatment-induced cytotoxicity, cells were plated and treated with drugs as described above. Cells were exposed to the same dilution series created for the in vitro efficacy studies. As above, vehicle-treated cells served as the 0% cytotoxicity control. After 24 h, cell viability was measured on a Synergy 2 Biotek microplate reader (Biotek Inc) via the XTT Cell Proliferation Assay Kit (ATCC® 30-1011K™) according to the manufacturer's protocol. Similar data were obtained in three independent experiments.

SARS-CoV-2 [3] = experiment: microbe, parasite or virus in culture; format: cell-based
MAVS, TOM70, STING, MX1 = experiment: MAVS, TOM70, STING and MX1 protein levels in Calu3 cells, flow cytometry and immunofluorescence; format: cell-based, human
icSARS-CoV-2-mNG [4] = format: cell-based, SARS-CoV-2; conditions: methanesulfonate
[5] = tested on: murine coronavirus hepatitis virus A-59 (MHV-A59); experiment: Mouse hepatitis virus A-59 in 17Cl-1 fibroblast cells; format: cell-based; conditions: mouse 17C1-1 fibroblast cells, 1000 nM
[6] = cited from earlier work
SARS-CoV-2 [7] = experiment: SARS-CoV-2 replication in HEK293T-hACE2 cells, flow cytometry; format: cell-based; conditions: 100 nM Mito-MES; methanesulfonate
icSARS-CoV-2-mNG [8] = format: cell-based, SARS-CoV-2
[9] = tested on: ACE2, CD147, NRP1 and TMPRSS2; experiment: Host entry factor protein levels in Calu3 cells, flow cytometry; format: cell-based, human; conditions: methanesulfonate

COC1=C(OC)C(=O)C(CCCCCCCCCC[P+](c2ccccc2)(c2ccccc2)c2ccccc2)=C(C)C1=O.CS(=O)(=O)[O-] [Mito-MES, 10-(4,5-dimethoxy-2-methyl-3,6-dioxo-1,4-cyclohexadienyl) decyl triphenylphosphonium methanesulfonate]
release of progeny SARS-CoV-2 virus particles to the cell supernatant, TCID50 assay (SARS-CoV-2 [1]): reduction in subsequent release of progeny SARS-CoV-2 virus particles
IC50 against SARS-CoV-2 compared to remdesivir, TCID50 assay (SARS-CoV-2 [1]; Vero E6): three orders of magnitude lower
percent of cells positive for SARS-CoV-2 N and Spike S proteins, flow cytometry (SARS-CoV-2 [1]; Vero cells, methanesulfonate): reduced the percent of cells that were positive for SARS-CoV-2 N and Spike S proteins; also recorded: reduced the percent of infected cells that were positive for N protein
antiviral activity by immunofluorescence and qPCR (SARS-CoV-2 [1]; methanesulfonate): confirmed by immunofluorescence (IF) detection of SARS-CoV-2 and by qPCR; also recorded: modest antiviral activity
reduction in SARS-CoV-2 viral titers in the lungs relative to vehicle (SARS-CoV-2 [2]; 4 mg/kg i.p. from 24 hours before infection, once per day): ~2 log units
reduction in SARS-CoV-2 viral titers in the lungs relative to vehicle (SARS-CoV-2 [2]; 4 mg/kg, 8 hours after infection): 1.5 log units
SARS-CoV-2 N protein among lung cell subtypes, flow cytometry (SARS-CoV-2 [2]; 3 dpi): had anti-SARS-CoV-2 activity in EPCAM(+) lung epithelial cells
viral titers compared to controls (vehicle) (SARS-CoV-2 [2]; K18-hACE2 mice, 4 mg/kg per day intraperitoneally, 72 hpi): viral titers were lower
reduction of the replication of SARS-CoV-2 (SARS-CoV-2 [2]; K18-hACE2 mice, overall): at least 2 orders of magnitude
cytotoxicity, XTT cell cytotoxicity assay (Vero cells): no observed cytotoxicity
reduction of release of progeny virus, TCID50 analysis of cell supernatants (SARS-CoV-2 [3]; Calu3, 100 nM and 1000 nM Mito-MES): > 2 logs
nucleocapsid protein expression, time-of-addition (SARS-CoV-2 [3]; Calu3, 1000 nM Mito-MES): inhibited nucleocapsid protein expression in Calu3 cells when added before infection (effect on viral entry) but also even when added 4 hours after infection
antiviral activity by immunofluorescence and PCR (SARS-CoV-2 [3]; Calu3, 10-1000 nM, methanesulfonate): much more potent in Calu3 cells compared to Vero E6 cells; also recorded: potent antiviral activity against SARS-CoV-2 in Calu3 cells at concentrations as low as 10 nM
Viral replication by flow cytometry at 48 hpi in Calu3 cells (SARS-CoV-2 [3]; DMF 10 μM, Mito-MES 100 nM, Mito-MES 100 nM+DMF 10 μM, […]): 2.4%
Viral replication by flow cytometry at 48 hpi in Calu3 cells (SARS-CoV-2 [3]; Mito-MES 1000 nM, Brusatol 250 nM, Mito-MES 1000 nM+Brusatol 250 nM): 2.9%
IC50 (SARS-CoV-2 [3]; Severe acute respiratory syndrome coronavirus 2, Calu-3, 48 h, read-out: IC50 (FIG. 1-i)): 20 nM
IC50 (SARS-CoV-2 [3]; Severe acute respiratory syndrome coronavirus 2, Calu-3, 72 h, read-out: IC50, % inhibition of viral replication (FIG. 5-c)): 30 nM
viral titers of infected cells vs vehicle control, TCID50-assay (SARS-CoV-2 [3]; […], 10 nM Mito-MES, 10 μM DMF, 100 nM 4F, alone or combined as labelled): reduced viral titers
lowest concentration that resulted in an observable antiviral effect (SARS-CoV-2 [3]; human lung epithelial cells): 10 nM
MX1 protein levels (MAVS, TOM70, STING, MX1; Calu3, flow cytometry, 4F 10 μM): increased MX1 protein levels
STING protein levels (MAVS, TOM70, STING, MX1; infected Calu3, flow cytometry, methanesulfonate): did not impact stimulator of interferon genes (STING)
TOM70 protein levels, immunofluorescence (MAVS, TOM70, STING, MX1; infected Calu3 vs vehicle, methanesulfonate): confirmed by immunofluorescence; also recorded: dose-dependent increase in TOM70 protein levels
MAVS protein levels (MAVS, TOM70, STING, MX1; total and infected Calu3, flow cytometry, methanesulfonate): no impact; also recorded: did not modulate MAVS protein levels
TOM70 protein levels, flow cytometry (MAVS, TOM70, STING, MX1; total and infected Calu3, methanesulfonate): increased the translocase of the outer membrane 70 (TOM70) protein levels
antiviral activity against fluorescent SARS-CoV-2 (icSARS-CoV-2-mNG [4]): potent and similar antiviral activity
anti-MHV-A59 activity [5]: anti-MHV-A59 activity
elimination half-life ([6]; based on post 4 h data): about 14 h
lung tissue penetration ([6]; mice, 4 mg/kg/day): good lung tissue penetration
accumulation in tissues including liver and kidney ([6]; mice, >10 days of oral supplementation): 50 to 700 pmol/g (wet weight)
time of peak plasma concentration ([6]; oral administration): ≤ 1 h
percent of SARS-CoV-2 infected HEK293T-hACE2 cells, flow cytometry (SARS-CoV-2 [7]): significantly reduced the percent of SARS-CoV-2 infected human non-cancerous HEK293T epithelial cells
antiviral activity against fluorescent SARS-CoV-2 (icSARS-CoV-2-mNG [8]): potent and similar antiviral activity
protein levels of ACE2, TMPRSS2, NRP1 and CD147 [9]: did not impact; also recorded: Neither SARS-CoV-2 infection nor Mito-MES significantly modulates protein levels
